“Also recorded” adds a separate entry of the source.
B1: NP_745594: Pseudomonas putida KT2440 efflux pump, accession of inner membrane protein, SEQ ID NO:3 (protein, listed as Pseudomonas putida)
chain: MPQFFIDRPVFAWVVALFILLAGALAIPQLPVAQYPNVAPPQVEIYAVYPGASAATMDESVVSLIEQELNGADNLLYFESQSSLGSATITATFAPGTHPDLAQVDVQNRLKVVESRLPRPVTQQGLQVEKVSTGFLLLATLTSEDGKLDETALSDILARNVMDEIRRLKGVGKAQLYGSERAMRIWIDPRKLIGFNLTPNDVAEAIAAQNAQVAPGSIGDLPSRSTQEITANVVVKGQLSSPDEFAAIVLRANPDGSTVTIGDVARVEIGAQEYQYGTRLNGKPATAFSVQLSPGANAMETATLVRAKMQDLARYFPEGVKYDIPYDTSPFVKVSIEQVINTLFEAMLLVFAVMFLFLQNLRYTLIPTLVVPVALMGTFAVMLAMGFSVNVLTLFGMVLAIGILVDDAIVVVENVERIMAEEGLPPKQATRKAMGQISGAIVGITLVLVAVFLPMAFMQGSVGVIYQQFSLSMAVSILFSAFLALSLTPALCATLLKPVAKGEHHERKGFFGWFNRRFESMSNGYQRWVVQALKRSGRYLLVYAVLLAVLGYGFSQLPTAFLPTEDQGYTITDIQLPPGASRMRTEQVAAQIEAHNAEEPGVGNTTLILGFSFSGSGQNAALAFTTLKDWSERGADDSAQSIADRATMAFTQLKDAIAYSVLPPPIDGLGESTGFEFRLQDRGGMGHAELMAARDQLLESASKSKVLTNVREASLAESPQVQLEIDRRQANALGVSFADIGTVLDVAVGSSYVNDFPNQGRMQRVVVQAEGDQRSQVEDLLNIHVRNDSGKMVPLGAFVQARWVSGPVQLTRYNGYPAVSISGEPAAGYSSGEAMAEVERLVAQLPAGTGLEWTGLSLQERLSGSQAPLLMALSLLVVFLCLAALYESWSIPTAVLLVVPLGVLGAVLAVTLRGMPNDVFFKVGLITLIGLSAKNAILIIEFAKHLVDQGVDAADAAVQAARLRLRPIVMTSLAFILGVVPLAIASGASSASQQAIGTGVIGGMLSATLAVVFVPVFFVVVMRLSGRRQAHDSDGQPVPRES
B2: NP_250708: Pseudomonas aeruginosa PA01 efflux pump, accession of inner membrane protein, SEQ ID NO:4 (protein, listed as Pseudomonas aeruginosa)
chain: MARFFIDRPVFAWVISLLIVLAGVLAIRFLPVAQYPDIAPPVVNVSASYPGASAKVVEEAVTAIIEREMNGAPGLLYTKATSSTGQASLTLTFRQGVNADLAAVEVQNRLKIVESRLPESVRRDGIYVEKAADSIQLIVTLTSSSGRYDAMELGEIASSNVLQALRRVEGVGKVETWGAEYAMRIWPDPAKLTSMNLSASDLVNAVRRHNARLTVGDIGNLGVPDSAPISATVKVDDTLVTPEQFGEIPLRIRADGGAIRLRDVARVEFGQSEYGFVSRVNQMTATGLAVKMAPGSNAVATAKRIRATLDELSRYFPEGVSYNIPYDTSAFVEISIRKVVSTLLEAMLLVFAVMYLFMQNFRATLIPTLVVPVALLGTFTVMLGLGFSINVLTMFGMVLAIGILVDDAIIVVENVERLMAEEGLSPHDATVKAMRQISGAIVGITVVLVSVFVPMAFFSGAVGNIYRQFAVTLAVSIGFSAFLALSLTPALCATLLRPIDADHHEKRGFFGWFNRAFLRLTGRYRNAVAGILARPIRWMLVYTLVIGVVALLFVRLPQAFLPEEDQGDFMIMVMQPEGTPMAETMANVGDVERYLAEHEPVAYAYAVGGFSLYGDGTSSAMIFATLKDWSERREASQHVGAIVERINQRFAGLPNRTVYAMNSPPLPDLGSTSGFDFRLQDRGGVGYEALVKARDQLLARAAEDPRLANVMFAGQGEAPQIRLDIDRRKAETLGVSMDEINTTLAVMFGSDYIGDFMHGSQVRKVVVQADGAKRLGIDDIGRLHVRNEQGEMVPLATFAKAAWTLGPPQLTRYNGYPSFNLEGQAAPGYSSGEAMQAMEQLMQGLPEGIAHEWSGQSFEERLSGAQAPALFALSVLIVFLALAALYESWSIPLAVILVVPLGVLGALLGVSLRGLPNDIYFKVGLITIIGLSAKNAILIIEVAKDHYQEGMSLLQATLEAARLRLRPIVMTSLAFGFGVVPLALSSGAGSGAQVAIGTGVLGGIVTATVLAVFLVPLFFLVVGRLFRLRKAPRTGNSPQIPTEQA
B3: YP_957870: Marinobacter aqueolei efflux pump, accession of inner membrane protein, SEQ ID NO:1 (protein, listed as Marinobacter aqueolei)
chain: MINFFISRPVFSWVLAIVAMLAGIMAIFVLPVQRYPSVAPPAVEIQADYPGASADTVSNTVVQVIEQEMTGLDNLLYMGSTADSSGHATVTLTFAAGTDPDIAQVQVQNKLKLAEPRLPEVVRQQGISVEKSSTSFLMVMAFVSTDGRLSKLDIADFISSELAEPIGRVTGIGSVQVFGSEYAMRIWLDPSALTNYGLTVADVSAAIEAQNAQVTAGQLGGLPAVEGQQLNATVTAQTLLTSTEEFRNILLKSMPDGSRVRLGDVARVELGGGAVQIDTFYDGEPAAGLGINLAPGANSLAVTEAVKARLQELEPYFPEGVEIRYPYQTAPFVEASIDAVVTTIIEAIALVVLVMLVFLQSWRATLIPAIAIPVVLLGTFAIMAAFGFSINMLTLFGLVLAIGLLVDDAIVVVENVERVMHEDGLSPMEATRKSMGQIASALIGIGVVLSAVFIPMAFFPGSTGAIYRQFSLSIAGAMVLSVLVALILSPMLCGRILKPTHERTLLQKLFGWFEAGLGRLTRGYVRLVGHTARHAWLYTLAFLGIVGLVAVLFVRLPGGFLPAEDQGFAVVQYQLPAGATQQRTIDTIQVIEDYFMDQDEVQGLFTIAGFSFAGRAQNAGLAFVNLKPWSERDPETQSADAIIQRANRALAGLVRDGRAFAFNLPPIPELGQALGFELRLQDRGAIGHEALMAAQGQLLQLAAESPVLTSVRPNGLADNPRYKVDIDYEKAQALGIEPSEISRLLSVTWGSQYVNDFLHEGRVKRVYVQGDAPFRMLPEDFEAWYLRAANGEMTPLSEVTNGRWEYGSPRLERFNGVPSRQIQGEPAPGYSTGEAMAEVERLIAQLPDGVAGAWSGLSYQERQAGAQASLLYALSALVVFLALAALYESWTIPISVMLAVPLGVLGAVLAAMVRGLPNDVFFQVGILTTVGVTARNAILLVEFARSLEDQGMKLIEATKEAARVRLRPILMTSVAFGMGVLPLAFASGAGATTRIAIGTAVLGGMISATILATFFIPLFYVVVRRITDFLSGSRDQDDSAAAAPGRANGGVADDR
B4: YP_692684: Alcanivorax borkumensis SK2 efflux pump, accession of inner membrane protein, SEQ ID NO:2 (protein, listed as Alcanivorax borkumensis)
chain: MARFFIDRPIFAWVIAIIMMMAGALAIYTLPIEQYPTVAPPQVSIAGNYPGASAKTVEDSVTQVIEQQMNGIDNLLYMSSSSDSFGNAAVNLTFAPGTDPDIAQVQVQNKLQLATPLLPQEVQQQGMQVTKSSDSFLMVAGFTSEDGSLSRADLADYVASNVQDPVSRVPGVGQIQLFGSPYAMRVWLDPNKLNKFDLTPQDVTQTIEVQNNQVASGQLGGAPAVEGQQLNATIIAQTRLEDVDQFENILLKVNPDGSRVFLKDVARVELAAQNYDVQGRYNGQPAAGLAISLATGANALDTAEALRARLAELQPYFPDKMEMVFPYDTTPFVSISIEEVVHTLFEAIILVFLVMYLFLQNFRATLIPTLAVPVVLLGTFAVLAAFGFSINTLTMFGMVLAIGLLVDDAIVVVENVERVMHEEGLPPKEATRKSMGQITGALVGIALVLSAVFVPMAFFPGSTGAIYRQFSITIVSAMVLSVLVALILTPALCATMLKAKDSEHQTDHGFFGWFNRTFDKSSRRYQGSVEKILGRRGRYLFIYVVIVGVLGFSFMRLPSSFLPEEDQGILFTLVTLPAGSTQEQTVKVLEKMEDYYLNEEASAVDGLFTVAGFSFTGRGQNAGMAFVNLKDWSERDLSVDGADNVVARAMGYFSTIREAMMFALNPPSIPELGNASGFDFQLLDQSGQGHEALIQARNQMLGMAAQDPRLAGVRPNGLEDSPQYQIDIDQQKAKALGLSISDINSTLQIAWGSSYVNNFVDRGRVKRVYVQADAPYRMLPENVNDWFVRNNQGKMVPFSTFATGHWTYGSPKLERYNGVSSVNIQGNAAPGYSTGDAMDAMEELSAKLPAGFGFEWTGMSYQERQSGDQAPALYVISLLVVFLCLAALYESWSIPFAVMLVVPLGILGAVLAATFRDLNNDVFFQVGLLTTIGLSAKNAILIAEFALELEQKGEHLLKATLEAVRMRLRPILMTSLAFMLGVTPLMISTGAGAGARNAIGTGVFGGMLTATVLAIFFIPLFYVAVRKLSGVPLDGKKKGKE

Tested on: E. coli DH1 ΔacrAB
Settings: for biofuel level that inhibited growth: added to pooled culture in M9 minimal medium, aimed at an inhibitory concentration that reduced growth by 25%; for outcome of efflux pump in competition: 2% geranyl acetate, serial dilution competition
Description: In order to screen the efflux pump library against a variety of biofuels we devised a competition-based strategy to select for pumps that improved biofuel tolerance (FIG. 1A). Cells containing plasmids with individual pumps were grown separately and then pooled so that all individual strains were represented equally. This pooled culture was then grown both with and without biofuel, and maintained through serial dilutions every 10-14 hours over a total of 96 hours. At each dilution time point, plasmids from each culture were isolated and a custom microarray was used to quantify the amount of each efflux pump plasmid present in the culture (Methods).
Pooled culture glycerol stocks were used to inoculate M9 minimal medium with 30 μg/ml kanamycin and 10 μM IPTG. The culture was then divided into tubes to a final volume of 5 ml and biofuel was added directly to the tubes. All conditions were prepared in triplicate. Cultures were grown at 37° C. with orbital shaking at 200 rpm for all experiments.
Every 10-14 hours the cultures were diluted 1:100 into 5 ml of fresh M9 minimal medium with kanamycin, IPTG, and biofuel (where applicable). For the time-course assay, cultures were spun down at the completion of a growth cycle and plasmids were isolated. For end point competition assays, plasmid was isolated from the culture after 72 hours of serial dilution.
Custom microarrays (NimbleGen, Roche, USA) were used to measure the relative quantities of the efflux pumps present in the plasmid DNA isolated from the competition cultures. Arrays were designed so that they contained probes for all HAE1 annotated efflux pumps from all sequenced bacterial genomes. 12×135K arrays were used to allow for 12 experiments per slide.
Plasmid DNA was labeled and hybridized following the protocol for NimbleGen Comparative Genomic Hybridization Microarrays with minor modifications (Supporting Methods). Data were normalized using the standard settings for RMA analysis in the NimbleScan software. Probe values were averaged using a custom Matlab script (Mathworks, Inc.). […] For the positive hybridization control, all library plasmids were prepared individually and combined in vitro in equal proportions. For the negative hybridization control, a plasmid with the same vector backbone as those in the library, but no efflux pump, was isolated from DH1 ΔacrAB. Both hybridization controls were labeled and hybridized to the array using the methods described above.
This required the use of a co-solvent in order to accurately pipette small volumes. In both cases dimethylformamide (DMF) was used as the co-solvent. […] Other biofuels were added directly without the use of a co-solvent.

Molecule | biofuel level that inhibited growth [% v/v] | outcome of efflux pump in competition | other results
CN(C)C=O [DMF, dimethylformamide] |  |  | toxicity limit to E. coli (co-solvent amount present in the culture): > 0.2%
CCCCCC(=O)OCC=C(C)CCC=C(C)CCC=C(C)C [farnesyl hexanoate] | 2.5 |  | 
C=C(C)[C@H]1CC=C(C)CC1 [limonene] | 0.025 |  | 
CC1=CCC2CC1C2(C)C (stereo not drawn) [α-pinene] | 2 |  | 
B1 |  | survived the competition | 
B2 |  | survived the competition | 
B3 |  | increase survival | 
B4 |  | increase survival; also recorded: best pump | 
